≈ marks a conversion by molar mass, not a printed value.
Tests used:
[1] = test system: guinea pig tracheal chain preparations; assay: spontaneous tone of guinea pig tracheal chain (ring) preparation, relaxant effect; details: for absolute separation ratio: atrial ED25 versus tracheal ED50, guinea pig in vitro preparations
Text: (§1) Two in vitro test systems used for determining selective β-stimulant activity are: (1) effect on spontaneous tone of guinea pig tracheal chain preparations as a measure of β-stimulant (direct relaxant) effect on airway smooth muscle, and (2) effect on rate of spontaneously beating right atria of the guinea pig as a measure of β-stimulant effect on cardiac muscle.

[2] = test system: right atria of the guinea pig; assay: rate of spontaneously beating guinea pig right atria; details: Cavia porcellus; in vitro; β-stimulant effect on cardiac muscle; read-out: ED25, increasing the rate of contraction of guinea pig right atria
Text: as §1

Q: How did the absolute separation ratio [1] turn out when `CC(C)NCC(O)c1ccc(O)c(O)c1` (racemic) [d,l isoproterenol, reference compound] was run?
A: 0.5

Q: How did the EC50 ([1]; Cavia porcellus, in vitro, β-stimulant (direct relaxant) effect on airway smooth muscle, read-out: ED50, relaxes the spontaneous tone of guinea pig tracheal ring preparation) turn out when `Oc1ccc(OCC(O)CNCCCCCCNCC(O)COc2ccc(O)c(O)c2)cc1O` (centres unmarked) [N,N'-bis[3,4-dihydroxyphenoxy)-2-hydroxypropyl]-1,6-diaminohexane] was run?
A: 0.00414 µg/mL (≈ 0.00861 µM)

Q: What about the absolute separation ratio [1] of the same molecule?
A: 7

Q: What about the “improvement of absolute separation ratio compared to d,l isoproterenol” value ([1]; versus d,l isoproterenol in similar in vitro preparations) of the same molecule?
A: 14 fold

Q: What about the EC25 [2] of the same molecule?
A: 0.029 µg/mL (≈ 0.0603 µM)
